Assay results as given in PMC5996347, “2-Mercapto-Quinazolinones as Inhibitors of Type II NADH Dehydrogenase and Mycobacterium tuberculosis: Structure–Activity Relationships, Mechanism of Action and Absorption, Distribution, Metabolism, and Excretion Characterization” (ACS Infectious Diseases, 2018).
≈ marks a conversion by molar mass, not a printed value. Read-outs that look alike come from different tables or passages of the source.

Columns and labels:
HepG2 [1] = conditions: human
HepG2 [2] = test: cells; conditions: Homo sapiens, HepG2, read-out: HepG2 IC50
Mouse pharmacokinetics = assay type: in vivo, female C57Bl/6 mice; conditions: for AUC(0-t) / Cmax: 10 mg/kg; for AUC: whole blood, single rising oral dose
Description: Test compound was dosed as a bolus solution intravenously at 3 mg free base/kg (dose volume: 5 mL/kg; dose vehicle: 10% DMSO; 40% PEG400; 50% saline) to female C57Bl/6 mice (n = 3) or dosed orally by gavage as a suspension at 10 or at 5, 30, or 100 mg free base/kg (dose volume: 10 mL/kg; dose vehicle: 1.0% carboxy methyl cellulose) to female C57Bl/6 mice (n = 3/dose level). Blood samples were taken from each mouse tail vein at predetermined time points postdose, mixed with nine volumes of distilled water, and stored frozen until UPLC-MS/MS analysis. Pharmacokinetic parameters were derived from the blood concentration time curve using PK Solutions software v 2.0 (Summit Research Services, USA).

M. tuberculosis H37Rv [3] = test: microbe, parasite or virus in culture; assay type: cell-based; conditions: Mycobacterium tuberculosis
[4] = molecular target: T1, recombinant MBP-MtNdh (MTb NDH-2) (Mycobacterium tuberculosis, UniProt P95160); test: Ndh activity assay (NADH oxidation at 340 nm); assay type: biochemical; conditions: NADH 250 μM, Q2 40 μM; mean ± SD, Figure 6 inset; read-out: IC50 against MBP-MtNdh
T1 construct: The ORF corresponding to Rv1854c was codon optimized for E. coli; made in house; host or cells: E. coli BL21 (DE3) pLysS

M. tuberculosis H37Rv [5] = test: H37Rv MIC in GAST medium; assay type: cell-based, Mycobacterium tuberculosis
physchem [6] = assay type: physicochemical; conditions: for solubility kinetic: water, kinetic from dmso stock
Description: The aqueous solubility of the test compounds was measured using laser nephelometry. Compounds were subject to serial dilution from 10 to 0.5 mM in DMSO. An aliquot was then mixed with Milli-Q water to obtain an aqueous dilution plate with a final concentration range of 250–12 μM, with a final DMSO concentration of 2.5%. Triplicate aliquots were transferred to a flat bottomed polystyrene plate which was immediately read on the NEPHELOstar (BMG Lab Technologies). The amount of laser scatter caused by insoluble particulates (relative nephelometry units, RNU) was plotted against compound concentration using a segmental regression fit, with the point of inflection being quoted as the compounds aqueous solubility (μM).

[7] = mouse liver microsomes
M. tuberculosis H37Rv [8] = test: Extracellular flux analysis (oxygen consumption rate); conditions: 1 at 39 μM, 7 at 45 μM
in vitro = in vitro ADME; conditions: PAMPA, pH 7.4
Description: The permeability was performed using a 96-well precoated BD Gentest PAMPA plate (BD Biosciences, U.K.). Each well was divided into two chambers: donor and acceptor, separated by a lipid-oil-lipid trilayer constructed in a porous filter. The effective permeability, Pe, of the compound was measured at pH 7.4. Stock solutions (5 mM) of the compound were prepared in DMSO. The compound was then further diluted to 10 μM in phosphate buffered saline at pH 7.4. […] The compound dissolved in phosphate buffered saline was then added to the donor side of the membrane, and phosphate buffered saline without compound was added to the acceptor side. The PAMPA plate was left at room temperature for 5 h; after which time, an aliquot (100 μL) was then removed from both acceptor and donor compartments and mixed with acetonitrile (80 μL) containing an internal standard: donepezil at 50 ng/mL). The samples were centrifuged (10 min, 5 °C, 3270g) to sediment precipitated protein and sealed prior to UPLC-MS/MS analysis using a Quattro Premier XE (Waters Corp, USA). Pe was calculated as shown in the below equation. [drawing 2] where CA(t) = peak area of compound present in acceptor well at time (t) = 18 000 s; Cequi = [CD(t) × VD + CA(t) × VA]/(VD + VA); A = filter area; VD = donor well volume; VA = acceptor well volume; t = incubation time; CD(t) = peak area of compound present in donor well at time (t) = 18 000 s. Recovery of compound from donor and acceptor wells was calculated, and data was only accepted when recovery exceeded 70%.

[9] = assay type: in vitro ADME; conditions: mouse, plasma
Description: In brief, a 96-well equilibrium dialysis apparatus was used to determine the free fraction in plasma for each compound (HT Dialysis LLC, Gales Ferry, CT). Membranes (12–14 kDaA cutoff) were conditioned in deionized water for 60 min, followed by conditioning in 80:20 deionized water/ethanol overnight and then rinsed in water and isotonic buffer before use. Mouse plasma from appropriate species was removed from the freezer and allowed to thaw on the day of experiment. Thawed plasma was then centrifuged (Allegra X12-R, Beckman Coulter, USA) and spiked with test compound (final concentration 10 μg/mL), and 150 μL aliquots (n = 3 replicate determinations) were loaded into the 96-well equilibrium dialysis plate. Dialysis against isotonic buffer (150 μL) was carried out for 5 h in a temperature controlled incubator at ca. 37 °C (Barworld scientific Ltd., UK) using an orbital microplate shaker at 100 rpm (Barworld scientific Ltd., UK). At the end of the incubation period, 50 μL aliquots of plasma or buffer were transferred into a 96-well deep plate and the composition in each well was balanced with control fluid (50 μL), such that the volume of buffer to plasma is the same. Sample extraction was performed by the addition of 200 μL of acetonitrile containing an appropriate internal standard. Samples were allowed to mix for 1 min and then centrifuged at 3000 rpm in 96-well blocks for 15 min (Allegra X12-R, Beckman Coulter, USA) after which 150 μL of supernatant was removed to 50 μL of water. All samples were analyzed by UPLC-MS/MS on a Quattro Premier XE Mass Spectrometer (Waters Corporation, USA). The unbound fraction was determined as the ratio of the peak area in buffer to that in plasma.

physchem [10] = assay type: physicochemical; conditions: pH 7.4
Description: The chromatographic hydrophobicity index (CHI) was determined according the method previously described.[43],[44] Briefly, test compounds were prepared as 0.5 mM solutions in 50:50 acetonitrile/water and analyzed by reversed-phase HPLC-UV (wavelength 254 nm) using a Phenomenex Luna C18 100 Å, 150 × 4.6 mm, 5 μm column with a gradient of aqueous phase (50 mM ammonium acetate (pH 7.4)) and mobile phase (acetonitrile). By plotting the retention time of a set of reference compounds against known CHI values, the CHI value of test compounds was calculated according to their retention time.

[11] = molecular target: T1, recombinant MBP-MtNdh (MTb NDH-2); design: method as in PMID 15767566; conditions: range covering Figure 6 and literature; read-out: IC50 against NDH-2 (text, chlorpromazine); cited from earlier work
M. tuberculosis = test: microbe, parasite or virus in culture; assay type: cell-based; conditions: Mycobacterium tuberculosis; read-out: MIC (internal control reference compound)
piniBAC reporter strain = assay type: cell-based, Mycobacterium tuberculosis; conditions: upregulation of iniBAC promoter
[12] = Calculated properties (StarDrop)
[13] = test system: cyd knockout strain (cydC::aph); assay type: cell-based, Mycobacterium tuberculosis
[14] = assay type: in vitro ADME; conditions: female, CD1, mouse, 0.5 μM, pH 7.4
Description: Test compound (0.5 μM) was incubated with female CD1 mouse liver microsomes (Xenotech LLC; 0.5 mg/mL, 50 mM potassium phosphate buffer, pH 7.4), and the reaction started with addition of excess NADPH (8 mg/mL, 50 mM potassium phosphate buffer, pH 7.4). Immediately, at time zero, and then at 3, 6, 9, 15, and 30 min, an aliquot (50 μL) of the incubation mixture was removed and mixed with acetonitrile (100 μL) to stop the reaction. Internal standard was added to all samples; the samples were centrifuged to sediment precipitated protein, and the plates were then sealed prior to UPLC-MS/MS analysis using a Quattro Premier XE (Waters Corporation, USA). XLfit (IDBS, UK) was used to calculate the exponential decay and consequently the rate constant (k) from the ratio of peak area of test compound to internal standard at each time point. The rate of intrinsic clearance (Cli) of each test compound was then calculated using the following calculation. [drawing 1] where V (mL/mg protein) is the incubation volume/mg protein added and microsomal protein yield is taken as 52.5 mg protein/g liver. Verapamil (0.5 μM) was used as a positive control to confirm acceptable assay performance.

MTb H37Rv = test: Intracellular ATP levels (BacTiter-Glo); conditions: 24 h drug exposure
[15] = female, C57Bl/6, mouse, in vivo
[16] = female, C57Bl/6, mouse, in vivo, po
[17] = Mycobacterium tuberculosis, H37RV, read-out: GAST MIC
[18] = Mycobacterium tuberculosis, H37RV, read-out: GAST MIC in ng/mL

T1 sequence (P95160 whole entry): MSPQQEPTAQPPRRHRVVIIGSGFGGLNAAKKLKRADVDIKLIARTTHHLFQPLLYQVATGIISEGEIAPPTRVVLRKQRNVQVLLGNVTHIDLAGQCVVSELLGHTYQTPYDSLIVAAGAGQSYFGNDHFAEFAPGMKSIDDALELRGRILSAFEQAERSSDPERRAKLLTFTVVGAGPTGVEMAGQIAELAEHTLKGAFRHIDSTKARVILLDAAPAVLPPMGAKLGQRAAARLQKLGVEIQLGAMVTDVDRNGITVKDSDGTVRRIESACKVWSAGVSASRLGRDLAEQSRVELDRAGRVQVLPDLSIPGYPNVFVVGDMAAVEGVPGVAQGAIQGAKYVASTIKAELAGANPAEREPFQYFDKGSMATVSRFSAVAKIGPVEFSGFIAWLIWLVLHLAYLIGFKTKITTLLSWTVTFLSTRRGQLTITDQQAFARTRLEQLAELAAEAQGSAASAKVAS

Structure (SMILES)	IC50 (HepG2 [2]) [µM]	AUC(0-t) (Mouse pharmacokinetics; [16]) [ng·h/mL]	Cmax (Mouse pharmacokinetics; [16]) [ng/mL]	MIC (M. tuberculosis H37Rv [3]; read-out: 7H9-ADC MIC) [µM]	MIC (M. tuberculosis H37Rv [3]; read-out: 7H9-ADC MIC in ng/mL) [ng/mL]	IC50 [4] [µM]	MIC (M. tuberculosis H37Rv [5]; [17]) [µM]	MIC (M. tuberculosis H37Rv [5]; [18]) [ng/mL]	Kinetic solubility (physchem [6])	solubility kinetic (physchem [6]) [µM]	Papp at 5 h, 10 μM (in vitro) [×10⁻⁶ cm/s]	PPB (% unbound) [9] [% unbound]	chromatographic logD (physchem [10])	further results
O=C(CSc1nc2ccccc2c(=O)[nH]1)NC1CCC(F)(F)CC1 [Compound 7, N-(4,4-Difluorocyclohexyl)-2-((4-oxo-3,4-dihydroquinazolin-2-yl)thio)acetamide]	> 50	1120	399	0.4	141	0.0066 ± 0.004	0.4	141	111 (HCl salt) μM	105 (≈ 37.1 µg/mL)	6.4	13	1.5	HepG2 cytotoxicity (in words) (HepG2 [1]): no HepG2 cytotoxicity was observed; Clb (Mouse pharmacokinetics; [15]): 39 mL/min/kg; Vd (Mouse pharmacokinetics; [15]): 1 L/kg; bioavailability (Mouse pharmacokinetics; [15]): 29%; AUC (Mouse pharmacokinetics; female, C57Bl/6, mouse, 5 mg/kg, read-out: AUC at 5 mg/kg oral (converted)): 9430 ng·h/mL; AUC (Mouse pharmacokinetics; female, C57Bl/6, mouse, 30 mg/kg, read-out: AUC at 30 mg/kg oral (converted)): 2190 ng·h/mL; AUC (Mouse pharmacokinetics; female, C57Bl/6, mouse, 100 mg/kg, read-out: AUC at 100 mg/kg oral (converted)): 2200 ng·h/mL; half-life (Mouse pharmacokinetics; female, C57Bl/6, whole blood, C57 mouse PK at 3 iv and 10 po (mg/kg), 1 free base, 7 HCl salt): 1.3 h; Dose linearity (AUC comparison) (Mouse pharmacokinetics; mouse, in vivo, po, 100 mg/kg): no dose linearity was observed; Human microsomal metabolite identification (human liver microsomes): oxidation of the quinazolinone ring; GSH trapping: adducts formed (with and without human liver microsomes): GSH adducts 12 and 13, without microsomal activation; Mouse microsomal metabolite identification [7]: a small amount of amide bond cleavage as well as oxidation of the quinazolin-4(3H)-one ring; Effect on maximal respiration after CCCP uncoupling (M. tuberculosis H37Rv [8]; CCCP 3 μM, compared to untreated control): significantly diminished maximal respiration; Effect on basal MTb OCR (M. tuberculosis H37Rv [8]; ~45 min, glucose or palmitate): minimal effect
CN(C)CCCN1c2ccccc2Sc2ccc(Cl)cc21 [CPZ, chlorpromazine, reference compound]						25 ± 2								IC50 [11]: 10 to 25 µM
NNC(=O)c1ccncc1 [Isoniazid, isoniazid]														MIC (M. tuberculosis): 0.2 µM (≈ 0.0274 µg/mL)
O=C(CSc1nc2ccccc2c(=O)[nH]1)NCC1CCC(F)(F)CC1 [Compound 11, N-((4,4-Difluorocyclohexyl)methyl)-2-((4-oxo-3,4-dihydroquinazolin-2-yl)thio)acetamide]	> 50	2140	1110	1.1	294	0.026 ± 0.006	0.8	294	>250 µM	250 (≈ 91.9 µg/mL)	6.5	21	1.6	MIC (M. tuberculosis H37Rv [5]; read-out: GAST MIC): 0.8 µM
O=C(CSc1nc2ccccc2c(=O)[nH]1)NCc1ccccc1 [Compound 2]				4.5		0.51 ± 0.05	5.9			109 (≈ 35.5 µg/mL)			1.5	pini-LUC reporter (piniBAC reporter strain): Not likely cell wall inhibitor; PFI [12]: 4.3; Cyd KO reporter [13]: Not likely QcrB inhibitor; Microsomal Cli, mouse [14]: Mouse 1.6 mL/min/g
COc1nc2ccc(Br)cc2cc1[C@@H](c1ccccc1)[C@@](O)(CCN(C)C)c1cccc2ccccc12 [bedaquiline]														Cellular ATP levels in MTb (MTb H37Rv): depletion of cellular ATP levels
